Experimental data from article PMC12752606, “METTL10‐Mediated PIAS3 Methylation Links Purine Metabolism to Gastric Cancer Progression” (Advanced Science, 2025).
pIC50: −log10 of the molar value.

Legend:
[1] = target: other tested methyltransferases; assay: Off-target methyltransferase profiling, panel as a whole; assay type: biochemical; conditions: all panel enzymes other than METTL10
Protocol: To evaluate the off‐target effects of LZQ‐02‐023‐01 on methyltransferase activity, a panel of enzymes was assessed using the MTase‐Glo Methyltransferase Assay (Promega), following the manufacturer's instructions. The assay was performed by ICE Bioscience Inc. Briefly, LZQ‐02‐023‐01 was serially diluted 4‐fold in DMSO to generate a 10‐point concentration gradient, and the resulting solutions were dispensed into 384‐well white assay plates using an Echo acoustic liquid handler (Labcyte). Plates were centrifuged at 1000 rpm for 1 min to ensure even compound distribution. Following a 10‐min preincubation at 25 °C, 2 µL of a substrate solution containing S‐adenosylmethionine (SAM) and the specific methyltransferase substrate (Table S7, Supporting Information) was added to each well. After a brief centrifugation, plates were incubated at 25 °C for 180 min to allow the enzymatic methylation reaction to proceed. Subsequently, 1 µL of MTase‐Glo reagent was added, followed by centrifugation and incubation at 25 °C for 45 min. […]
Luminescence signals were directly proportional to methyltransferase activity, were recorded using a microplate reader (BMG LABTECH). Percent inhibition was calculated by normalizing luminescence intensities of compound‐treated wells to DMSO‐treated controls, and IC50 values were calculated using GraphPad Prism 8 software.

METTL10 = test system: T1, METTL10; assay: In vitro (cell-free) methylation of GST-PIAS3 by His-METTL10, immunoblotting; assay type: biochemical; conditions: 20 µM or higher; GST-PIAS3 with His-METTL10
T1 construct: purchased ICE Bioscience Inc
Protocol: For the in vitro methylation assay, His‐METTL10 (1 µg) was incubated with recombinant human Histone H4 protein (20 ng; Abcam, ab198115) or GST‐PIAS3 (100 ng) of in methylation reaction buffer (50 mM Tris‐HCl (pH 8.0), 20 mM KCl, 5 mM DTT, 4 mM EDTA) containing 20 µM S‐(5′‐adenosyl)‐L‐methionine chloride dihydrochloride (SAM) at 37 °C for 1 h. The reaction was terminated by boiling the samples in SDS‐PAGE loading buffer, and the products were analyzed by immunoblotting.

[2] = test system: PIAS3-K442 methylation in MKN45 and AGS cells; assay: Immunoblotting of PIAS3-K442 methylation in GC cell lines; assay type: cell-based; conditions: 20 µM or higher, 24-hour treatment
Protocol: Protein extraction from tissues or cells was performed by lysis buffer (20 mM Tris‐HCl (pH 7.5), 150 mM NaCl, 1 mM EDTA, 1 mM EGTA, 2.5 mM sodium pyrophosphate, 1 mM β‐glycerolphosphate, 1% Triton X‐100) supplemented with 1% phenylmethylsulfonyl fluoride (PMSF; Solarbio, P0100) and protease inhibitor cocktail (Apexbio, K1007) and lysed at 4 °C for 60 min, followed by centrifugation at 12000 g for 15 min at 4 °C. For Immunoblotting, the protein concentration was determined using the Pierce BCA Protein Assay Kit (Thermo Fisher Scientific, A55864). The protein samples were denatured by boiling in SDS‐PAGE loading buffer. For immunoprecipitation, antibodies were incubated with Dynabeads Protein G (Thermo, 10004D) at 4 °C for 4 h. The supernatant was then incubated with magnetic beads conjugated with antibodies or anti‐FLAG‐M2 magnetic beads (Sigma–Aldrich, M8823) at 4 °C overnight. Following incubation, the magnetic beads were washed three times with lysis buffer and then boiled in SDS‐PAGE loading buffer. The proteins were separated by sodium dodecyl sulfate polyacrylamide gel electrophoresis (SDS‐PAGE) with One‐Step PAGE Gel Fast Preparation Kit (Vazyme), and then transferred to the PVDF Membrane (Bio‐Rad). After blocking with a protein‐free rapid blocking buffer (Epizyme, PS108P) for 15 min, the membranes were incubated with primary antibodies at 4 °C overnight. […]

MKN45 and AGS cells = assay: Cell proliferation, CCK-8 assay; assay type: cell-based; conditions: 10 and 20 µM
Protocol: Cell proliferation was assessed using Cell Counting Kit‐8 (CCK‐8; K1018, APExBIO). Briefly, 1000 cells per well were seeded into 96‐well plates, and proliferation was measured at 450 nm on days 0, 1, 3, 5, and 7 using the CCK‐8 assay using a multifunctional microplate reader.

[3] = test system: gastric tumors of K19-C2mE mice; assay: K19-C2mE spontaneous gastric cancer mouse model; assay type: in vivo; conditions: 40 mg/kg/day i.p., 4 weeks
Protocol: For the subcutaneous tumor model, 5 × 10⁶ MKN45 cells suspended in 100 µL of sterile PBS were injected subcutaneously into the flanks of BALB/c nude mice. When tumor volumes reached approximately 50 mm^3, mice were randomized into three groups (Vehicle control, LZQ‐02‐023‐01 at 20 mg/kg or 40 mg/kg, n = 10 per group). All treatments were administered via intraperitoneal injection once daily for 14 consecutive days. Tumor volumes were measured every 2 days using calipers and calculated using the formula: volume = [length × (width[2])]/2. Mice were sacrificed on day 24 for endpoint analyses. For genetically engineered mouse models (GEMMs), 25‐week‐old K19‐C2mE mice were randomized into Vehicle control (n = 8) and LZQ‐02‐023‐01 treatment (40 mg/kg, n = 8) groups. Both groups received daily intraperitoneal injections for 28 consecutive days. Similarly, 8‐week‐old Cldn18‐AT mice were induced with tamoxifen (100 mg/kg, T5648, Sigma) and, 2 weeks post‐induction, randomized into Vehicle (n = 6) and LZQ‐02‐023‐01 (40 mg/kg, n = 6) treatment groups. Treatments were administered daily via intraperitoneal injection for 28 days.
Paraffin sections were initially placed in an oven at 65 °C for 30 min to melt the paraffin. The slides were then immersed in two consecutive xylene baths for 10 min each to dewax the tissue, followed by hydration through a series of graded ethanol solutions. […]

**Q.** `Cc1ccc(Nc2ncc3c(n2)N(C)C(=O)N(c2cccc(N)c2)C3)cn1` [LZQ-02-023-01, Three‐(3‐aminophenyl)‐1‐methyl‐7‐((6‐methylpyridin‐3‐yl)amino)‐3,4‐dihydropyrimido [4,5‐d] pyrimidin‐2 (1H)‐one] was tested. Which pIC50 [1] did it give?
**A.** < 5.52

**Q.** And the “Methylation of PIAS3 in cell-free system” value (METTL10)?
**A.** decreased

**Q.** What about the “Methylation of PIAS3-K442 in GC cell lines” value [2] of the same molecule?
**A.** decreased

**Q.** What about the “GC cell proliferation (CCK-8)” value (MKN45 and AGS cells) of the same molecule?
**A.** significantly inhibited

**Q.** What about the “Pathologic grade of lesions and proliferation (H&E, Ki-67)” value [3] of the same molecule?
**A.** lower pathologic grade lesions and proliferation

**Q.** What about the “Tumor burden and progression” value [3] of the same molecule?
**A.** significantly reduce tumor burden and progression
